According to US6410588B1, “Use of cannabinoids as anti-inflammatory agents” (priority 1998, dated 2002):

Test system: IL-1β release
Test: IL-1β release by LPS-stimulated human PBMC
Assay type: cell-based
Settings: for IL-1β: LPS 10 ng/ml 24 hours, mean ± SEM
Procedure: CBD was dissolved in ethanol/DMSO.
Peripheral blood mononuclear cells (PBMC) were isolated from the whole blood of healthy donors by Ficoll Hypaque gradient. […] After this 6 hour pretreatment period, the cells were stimulated with either LPS from Salmonella typhimirium, 10 ng/ml, for 24 hours (for TNF and IL-1β) or with PHA, 5 μg/ml, for 72 hours (for IFNγ) Viability of the PBMC was assessed with the MTT test.
Human PBMC were cultured and stimulated with or without CBD, as described in Materials and Methods. The stimulus for TNF and IL-1 production was LPS, the stimulus for IFNγ production was PHA. The results are the mean of triplicate wells±SEM. ND=not done.

With C=C(C)[C@@H]1CCC(C)=C[C@H]1c1c(O)cc(CCCCC)cc1O [CBD, Cannabidiol] the IL-1β (CBD 0.1 μg/ml) was 621 ± 82 pg/mL, the IL-1β (CBD 1 μg/ml) was 671 ± 74 pg/mL and the IL-1β (CBD 2.5 μg/ml) was 630 ± 81 pg/mL. The IL-1β (CBD 5 μg/ml) was 908 ± 99 pg/mL, the IL-1β (CBD 10 μg/ml) was 1575 ± 335 pg/mL and the IL-1β (CBD 20 μg/ml) was 2292 ± 251 pg/mL. The IL-1β (CBD 30 μg/ml) was 4158 ± 313 pg/mL, the “effect on LPS-induced IL-1β release (in words)” value (higher concentrations of CBD) was “increased their release” and the “effect on LPS-induced IL-1β release (in words)” value (lower concentrations of CBD (0.1 to 5 μg/ml)) was “significantly suppressed”.
